In PMC6269719, “Extraction of Antioxidant Components from Bidens pilosa Flowers and Their Uptake by Human Intestinal Caco-2 Cells” (Molecules, 2013):

What was measured:
[1] = tested on: Caco-2 cells; test: Bidirectional transport across Caco-2 cell monolayers; conditions: pH 7.4, up to 60 min; for Papp, apical to basolateral flux: A→B, compounds tested within EM 1 mg/mL, mannitol 50 μM, 14-day monolayers
Description: (§1) To investigate the intestinal absorption and transport properties of the three DiCQAs and three PGAs, 14-day cultured Caco-2 monolayer cells were used for the bidirectional transport study.
(§2) It was cultured in Dulbecco’s Modified Eagle Medium (DMEM medium, Hyclone, Logan, UT, USA) containing high glucose (4.5 g/L) plus 10% fetal bovine serum (Biological Industries, Beit Haemek, Israel), 1% L-glutamine and 1% penicillin-streptomycin (Hyclone) at 37 °C, 5% CO2 with constant humidity controlled environment. The medium was replaced three times a week during cell growth and differentiation. Cells used in this study were between passages 25 and 40.
(§3) After the cells in the flask grew to 90%–100% confluency, cells were trypsinized and seeded on 12 mm transwells with 0.4 µm pore polyester membrane insert (product #3460, Corning Inc., Corning, NY, USA) at a density 2 × 10^5 cells/mL. Culture medium (0.5 mL and 1.5 mL, respectively) was added into the space between the transwell and the plate. The culture was incubated at 37 °C under 5% CO2 atmosphere and the medium was changed fresh every 48 h. The transepithelial electrical resistance (TEER) was measured with Millicell-ERS epithelial Voltohmmeter (Millipore, Bedford, MA, USA), which was reflected to the tightness of intercellular junctions and only cells with TEER (in Ω/cm^2) >300 Ω/cm^2 (at 14 day) were used for permeability study.
(§4) Before conducting the permeation test, the trasnswell insert was emerged and rinsed in 25 mM HEPES (pH 7.4 Hank’s Balanced Salt Solution, HBSS) and rinsed twice at 37 °C under 5% CO2 atmosphere, each time for 30 min. The paracellular marker molecule mannitol (low permeability), propranolol (highly permeability), and EM fraction (1 mg/mL) were separately dissolved in DMSO and diluted with HBSS to final concentrations of 50 μM, 10 μM, and 1 mg/mL (at non-cytotoxic concentration), respectively. The solutions were respectively transferred into the apical and basolateral zones of the transwell insert with the other side filled up with HBSS. The same pH (7.4) was used both in apical-to-basolateral (A→B) and basolateral-to-apical (B→A) transport directions during each experiment. The whole apparatus was incubated at 37 °C under 5% CO2 atmosphere and the permeation was examined at time point 5, 15, 30, and 60 min, respectively. Permeates obtained from various direction were analyzed with HPLC and LC-MS according to the aforementioned method. The apparent permeability coefficients (Papp, cm/s) and the efflux ratio were calculated according to the literature: Papp = (V/A × C0) × (dQ/dt) where V is the volume of receiver part (0.5 mL and/or 1.5 mL).
(§5) A is the surface area of the cell monolayer (1.1 cm^2).
(§6) C0 is the initial concentration of the extract (1 mg/mL).
(§7) dQ/dt is the cumulative transport rate (mg/mL/min). Efflux ratio = Papp,B→A/Papp,A→B

[2] = tested on: db/db mice; design: method as in doi:10.1016/j.jfca.2010.03.025; conditions: i.p., compared to the other two polyacetylenic glucosides; cited from earlier work
[3] = Bidirectional transport across Caco-2 cell monolayers; conditions: human, Caco-2, pH 7.4
Description: as §1, §2, §3, §4, §5, §6, §7

In the case of O=C(/C=C/c1ccc(O)c(O)c1)O[C@@H]1[C@@H](OC(=O)/C=C/c2ccc(O)c(O)c2)C[C@@](O)(C(=O)O)C[C@@H]1O [DiCQA 1, 3,4-di-O-caffeoylquinic acid], the “Papp, apical to basolateral flux” value [1] is reported as “higher than the paracellular transport marker mannitol”.

In the case of CC#CC#CC#CC#CCCC(CO)O[C@@H]1O[C@H](CO)[C@@H](O)[C@H](O)[C@H]1O (stereo partly drawn) [PGA 5, 2-β-D-glucopyranosyloxy-1-hydroxytrideca-5,7,9,11-tetrayne], the “Papp, apical to basolateral flux” value [1] is given as “lower than the Papp for mannitol”, the “Papp, basolateral to apical flux” value ([1]; B→A, compound within EM 1 mg/mL) is given as “closed to that of propranolol” and the “Increasing serum insulin, reducing blood glucose levels and glycosylated HbA1c levels” value [2] is given as “most effective compound”.

In the case of OC[C@@H](O)[C@@H](O)[C@H](O)[C@H](O)CO [mannitol, reference compound], the Papp A→B at 60 min, 50 μM [3] is reported as 0.43 ± 0.1 ×10⁻⁶ cm/s.

In the case of CC#CC#CC#C/C=C/CCC(CCO)O[C@@H]1O[C@H](CO)[C@@H](O)[C@H](O)[C@H]1O (stereo partly drawn) [PGA 6, 3-β-D-glucopyranosyloxy-1-hydroxy-6(E)-tetradecene-8,10,12-triyne], the efflux ratio at 60 min, 1 mg/mL [3] is reported as 6.03 and the “Papp, apical to basolateral flux” value [1] is reported as “higher than the paracellular transport marker mannitol”.

Work on CC(C)NCC(O)COc1cccc2ccccc12 (centres unmarked) [propranolol, reference compound] yielded a Papp at 60 min, 10 μM [3] of 39.4 ± 4.12 ×10⁻⁶ cm/s.

In the case of O=C(/C=C/c1ccc(O)c(O)c1)O[C@H]1[C@H](O)C[C@](O)(C(=O)O)C[C@H]1OC(=O)/C=C/c1ccc(O)c(O)c1 [DiCQA 3, 4,5-di-O-caffeoylquinic acid], the “Papp, apical to basolateral flux” value [1] is reported as “higher than the paracellular transport marker mannitol”.

In the case of CC#CC#CC#C/C=C/CCC(CO)O[C@@H]1O[C@H](CO)[C@@H](O)[C@H](O)[C@H]1O (stereo partly drawn) [PGA 4, 2-β-D-glucopyranosyloxy-1-hydroxy-5(E)-tridecene-7,9,11-triyne], the efflux ratio at 60 min, 1 mg/mL [3] is reported as 32.1 and the “Papp, apical to basolateral flux” value [1] is reported as “higher than the paracellular transport marker mannitol”.
